Source: patent US20070238757A1, “NOVEL TREATMENT” (SmithKline Beecham p.l.c., priority 2000, published 2007)

System: rat primary hippocampal neurons
Assay: Neurite outgrowth assay in primary hippocampal neurons
Format: cell-based
Details: 48 hours, FIG. 2
Description: The hippocampi of gestational day 18 rat embryos were dissected out, incubated in trypsin (0.08%, 30 min at 37° C.) and dissociated mechanically (Skaper et al., 19990). Hippocampal cells were resuspended in neurobasal medium supplemented with B27, anti-oxidants, 1 mM glutamine, 25 μM glutamate, 1 mM pyruvate, +/−Compound 1 (10 nM-5 μM) or vehicle (DMSO) control.
For outgrowth assays, cells were plated at a density of 3000 cells/well into 96 well dishes that had previously been coated with poly-D-lysine followed by 10% FCS. For RNA isolation, cells were plated at 1×10^6 cells/well into a 35 mm tissue culture dish that had previously been coated with poly-D-lysine followed by 10% FCS.
Compound (I) was solubilised in DMSO and added to culture medium at time of cell plating at a dilution of 1:1000. Vehicle only (1:1000) was added to culture medium of untreated controls. […] Assays were quantified using a KS300 image analysis system (Imaging Associates, UK). For each cell measured, the length from the edge of the cell to the end of the longest neurite was measured for 100 cells/well for each treatment in triplicate. […] Results are expressed as a percentage of the length of neurites of cells treated with vehicle alone.
# Compound (I) at 0.01 and 0.05 μM has been analysed in one experiment only (n=3)

With CN(CCOc1ccc(CC2SC(=O)NC2=O)cc1)c1ccccn1 (centres unmarked) [Compound (I), 5-(4-[2-(N-methyl-N-(2-pyridyl)amino)ethoxy]benzyl)-2,4-thiazolidinedione] the “neurite outgrowth (effect in words)” value (10 nM-5 μM added at time of cell plating) was “increases neurite outgrowth in rat primary hippocampal neurons in a dose dependant manner” and the “increase of neurite outgrowth over untreated controls” value (Compound at 100 nM, length of longest neurite relative to cells treated with vehicle (DMSO) alone) was “approx. 50%”.
